Results published in the supplement of paper PMC4862054.

How the values were obtained:
Conditions in all cases: incubation time: 72 h
[1] = system: DU-4475; assay: drug sensitivity score (DSS), CellTiter-Blue viability (DSS (AUC-based score)); higher = stronger viability inhibition; extreme values may be limits of the assay
Description: (§1)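 DSRT with the CellTiter-Blue (resazurin reduction) viability readout, fluorescence 560/590 nm, 72 h incubation. Plates were normalised to DMSO and benzethonium chloride controls. DSS is computed from the area under the fitted dose-response curve (5 or 9 concentrations).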

[2] = system: HCC1937; assay: as above
Description: as §1

[3] = system: BT-549; assay: as above
Description: as §1

[4] = system: MFM-223; assay: as above
Description: as §1

[5] = system: MDA-MB-231; assay: as above
Description: as §1

[6] = system: BT-474; assay: as above
Description: as §1

[7] = system: CAL-51; assay: as above
Description: as §1

[8] = system: SK-BR-3; assay: as above
Description: as §1

[9] = system: MDA-MB-468; assay: as above
Description: as §1

[10] = system: CAL-148; assay: as above
Description: as §1

[11] = system: CAL-120; assay: as above
Description: as §1

[12] = system: HCC1143; assay: as above
Description: as §1

[13] = system: HCC1599; assay: as above
Description: as §1

[14] = system: MDA-MB-453; assay: as above
Description: as §1

[15] = system: CAL-85-1; assay: as above
Description: as §1

[16] = system: Hs578T; assay: as above
Description: as §1

[17] = system: MDA-MB-436; assay: as above
Description: as §1

[18] = system: HDQ-P1; assay: as above
Description: as §1

[19] = system: DU-4475; assay: normalised viability (% of control), CellTiter-Blue; higher = more viable cells (about 100 = DMSO control)
Procedure, shortened: (§2)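 Compound dissolved in 5 µl medium was pre-loaded into 384-well plates, and breast cancer cell lines in 20 µl suspension were seeded on top and incubated 72 h. After adding 2.5 µl CellTiter-Blue reagent for 2 h at 37 °C, fluorescence was read at 560/590 nm. Plates were normalised to vehicle (100) and a positive kill control (0), with Z'-factor quality control. Each value is normalised viability at a single listed concentration from the series.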

[20] = system: HCC1937; assay: as above
Procedure, shortened: as §2

[21] = system: BT-549; assay: as above
Procedure, shortened: as §2

[22] = system: MFM-223; assay: as above
Procedure, shortened: as §2

[23] = system: SK-BR-3; assay: as above
Procedure, shortened: as §2

[24] = system: MDA-MB-468; assay: as above
Procedure, shortened: as §2

[25] = system: CAL-148; assay: as above
Procedure, shortened: as §2

[26] = system: HCC1143; assay: as above
Procedure, shortened: as §2

[27] = system: HCC1599; assay: as above
Procedure, shortened: as §2

[28] = system: MDA-MB-436; assay: as above
Procedure, shortened: as §2

| Compound | drug sensitivity score [1] | drug sensitivity score [2] | drug sensitivity score [3] | drug sensitivity score [4] | drug sensitivity score [5] | drug sensitivity score [6] | drug sensitivity score [7] | drug sensitivity score [8] | drug sensitivity score [9] | drug sensitivity score [10] | drug sensitivity score [11] | drug sensitivity score [12] | drug sensitivity score [13] | drug sensitivity score [14] | drug sensitivity score [15] | drug sensitivity score [16] | drug sensitivity score [17] | drug sensitivity score [18] | normalised viability ([19]; 10 nM) | normalised viability ([20]; 100 nM) | normalised viability ([21]; 100 nM) | normalised viability ([22]; 100 nM) | normalised viability ([23]; 100 nM) | normalised viability ([24]; 100 nM) | normalised viability ([25]; 10 nM) | normalised viability ([26]; 100 nM) | normalised viability ([27]; 100 nM) | normalised viability ([28]; 100 nM) | normalised viability ([19]; 1 nM) | normalised viability ([20]; 10 nM) | normalised viability ([21]; 10 nM) | normalised viability ([22]; 10 nM) | normalised viability ([23]; 10 nM) | normalised viability ([24]; 10 nM) | normalised viability ([25]; 1 nM) | normalised viability ([26]; 10 nM) | normalised viability ([27]; 10 nM) | normalised viability ([28]; 10 nM) |
| --- | --- | --- | --- | --- | --- | --- | --- | --- | --- | --- | --- | --- | --- | --- | --- | --- | --- | --- | --- | --- | --- | --- | --- | --- | --- | --- | --- | --- | --- | --- | --- | --- | --- | --- | --- | --- | --- | --- |
| O=P(O)(NCCCl)NCCCl [Ifosfamide mustard] | 0 | 0 | 0 | 0 | 0 | 0 | 0 | 0 | 0 | 0 | 0 | 0 | 0 | 0 | 0 | 0 | 0 | 0 | 99.5% | 100% | 106% | 95.2% | 86.2% | 100% | 104% | 116% | 117% | 98.3% |  |  |  |  |  |  |  |  |  |  |
| Cn1cnc2c(F)c(Nc3ccc(Br)cc3F)c(C(=O)NOCCO)cc21 [MEK-162] | 16 | 0 | 0 | 0 | 4.22 | 0 | 0.246 | 0 | 0 | 0 | 0 | 7.86 | 2.32 | 0 | 0 | 0 | 0 | 0 |  |  |  |  |  |  |  |  |  |  | 97.6% | 95.1% | 107% | 87.9% | 83.4% | 98% | 91.5% | 80.6% | 111% | 126% |
